Reference: US20030211078A1, “Pseudo-antibody constructs” (priority 2001, published 2003)

Key:
[1] = in vivo pharmacokinetic analysis, circulating half-life / clearance in mice (FIG. 3); settings: equimolar doses
Procedure: FIG. 3 depicts a comparison of in vivo circulating half-life, in mice, of two pseudo-antibodies, 7E3 Fab′ (PEG3.4K-DSPE)2 and 7E3 Fab′ (PEG5K)2.
For in vivo pharmacokinetic analysis, c7E3 Fab′ (PEG3.4k-DSPE)2 and c7E3 Fab′ (PEG5k) were prepared, and given to mice in equimolar doses. The results are depicted in FIG. 3.

[2] = tested on: platelet aggregation (GPIIb/IIIa receptors on platelets); test: inhibition of platelet aggregation, in vitro activity (FIG. 1, FIG. 2); type: cell-based; settings: for binding activity / in vitro activity (inhibition of platelet aggregation) compared with unmodified antibody fragment ReoPro: FIG. 2; for in vitro activity (inhibition of platelet aggregation) compared with unmodified antibody fragment ReoPro: versus ReoPro; for in vitro activity (inhibition of platelet aggregation) compared with unmodified 7E3 Fab′: FIG. 1, versus unmodified Fab
Excerpt: FIG. 1 depicts a comparison of the inhibition of platelet aggregation by two pseudo-antibodies (7E3 Fab′ (PEG3.4K-DSPE)2 and 7E3 Fab′ (PEG3.4K-PAL)2) and one unmodified antibody fragment (7E3 Fab).
FIG. 2 depicts a comparison of the inhibition of platelet aggregation by two pseudo-antibodies (7E3 Fab′ (PEG5K)2 and 7E3 Fab′ (PEG10K)2) and one unmodified antibody fragment (ReoPro®).
The organic moieties portions of these constructs may also be dimerized, such that n=2. For example, the antibody fragment 7E3 Fab′ was used to construct the pseudo-antibody 7E3 Fab′ (PEG3.4k-DSPE)2 and the pseudo-antibody 7E3 Fab′ (PEG3.4.k-PAL)2 and the in vitro activities were compared with unmodified 7E3 Fab′.
Additionally, 7E3 Fab′ was used to construct the pseudo-antibodies 7E3 Fab′ (PEG5k)2 and 7E3 Fab′ (PEG10k)2 and the in vitro activites were compared with the unmodified antibody fragment ReoPro®.

[3] = cited from earlier work
[4] = target: T1, MMP 2 (Homo sapiens, UniProt P08253); settings: cited from earlier work
T1 sequence (P08253 110-660): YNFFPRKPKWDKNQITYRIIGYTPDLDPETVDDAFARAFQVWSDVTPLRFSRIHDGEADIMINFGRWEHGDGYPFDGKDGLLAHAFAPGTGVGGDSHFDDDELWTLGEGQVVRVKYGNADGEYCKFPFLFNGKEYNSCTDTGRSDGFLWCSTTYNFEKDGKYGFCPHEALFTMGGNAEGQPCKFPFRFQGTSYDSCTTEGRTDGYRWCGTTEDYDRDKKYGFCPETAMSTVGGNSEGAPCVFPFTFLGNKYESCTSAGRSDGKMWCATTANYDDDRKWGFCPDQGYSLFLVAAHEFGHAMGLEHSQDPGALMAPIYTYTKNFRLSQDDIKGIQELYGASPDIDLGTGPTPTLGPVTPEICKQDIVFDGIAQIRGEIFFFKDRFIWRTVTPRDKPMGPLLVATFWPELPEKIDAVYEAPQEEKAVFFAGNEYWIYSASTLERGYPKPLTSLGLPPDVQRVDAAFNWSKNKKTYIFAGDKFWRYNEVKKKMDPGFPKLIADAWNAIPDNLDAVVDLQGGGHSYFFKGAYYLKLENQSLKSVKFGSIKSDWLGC

[5] = target: MMP 3 (Homo sapiens, UniProt P08254); settings: cited from earlier work
[6] = target: MMP 9 (Homo sapiens, UniProt P14780); settings: cited from earlier work
[7] = tested on: adjuvant arthritic rat; settings: bone mineral density, MRI, micro-CT, histology; cited from earlier work

MMP 3, sequence (P08254 100-477): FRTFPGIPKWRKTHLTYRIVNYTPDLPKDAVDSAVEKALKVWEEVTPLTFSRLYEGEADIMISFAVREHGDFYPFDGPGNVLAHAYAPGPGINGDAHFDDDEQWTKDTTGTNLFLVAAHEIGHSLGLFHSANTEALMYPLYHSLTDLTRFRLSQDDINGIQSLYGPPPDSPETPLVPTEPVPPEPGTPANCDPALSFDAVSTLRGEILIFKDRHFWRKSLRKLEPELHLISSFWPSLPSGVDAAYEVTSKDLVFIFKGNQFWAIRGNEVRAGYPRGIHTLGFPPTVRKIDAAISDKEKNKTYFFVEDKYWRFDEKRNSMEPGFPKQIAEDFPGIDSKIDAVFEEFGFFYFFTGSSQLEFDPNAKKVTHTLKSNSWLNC
MMP 9, sequence (P14780 94-707): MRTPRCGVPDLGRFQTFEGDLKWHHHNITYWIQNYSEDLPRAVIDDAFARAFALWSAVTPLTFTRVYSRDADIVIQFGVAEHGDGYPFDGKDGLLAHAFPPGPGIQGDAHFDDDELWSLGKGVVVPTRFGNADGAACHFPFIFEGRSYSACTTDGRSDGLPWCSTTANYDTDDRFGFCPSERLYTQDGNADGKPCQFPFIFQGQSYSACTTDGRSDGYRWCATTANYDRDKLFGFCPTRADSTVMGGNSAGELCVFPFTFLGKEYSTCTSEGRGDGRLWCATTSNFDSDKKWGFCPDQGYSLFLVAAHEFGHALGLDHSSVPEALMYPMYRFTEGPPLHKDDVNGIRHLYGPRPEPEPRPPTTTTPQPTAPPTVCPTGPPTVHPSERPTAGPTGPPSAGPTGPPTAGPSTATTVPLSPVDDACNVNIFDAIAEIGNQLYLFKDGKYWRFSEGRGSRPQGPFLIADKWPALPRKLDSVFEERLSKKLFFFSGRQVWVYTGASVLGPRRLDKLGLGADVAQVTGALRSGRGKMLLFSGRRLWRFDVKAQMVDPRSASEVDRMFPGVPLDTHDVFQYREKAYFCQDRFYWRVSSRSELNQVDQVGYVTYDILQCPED

**Q.** For “c7E3 Fab′ (PEG5k): pseudo-antibody of c7E3 Fab′ with PEG5k, given to mice; probably the same as 7E3 Fab′ (PEG5K)2 of FIG. 3”, which rate of clearance [1] is on record?
**A.** Its rate of clearance is “cleared faster”.

**Q.** With “7E3 Fab′ (PEG10k)2: pseudo-antibody: 7E3 Fab′ fragment with two PEG10k chains” as the molecule, how does the binding activity [2] read?
**A.** Its binding activity is “binding activity was clearly retained”.

**Q.** What about the “in vitro activity (inhibition of platelet aggregation) compared with unmodified antibody fragment ReoPro” value [2] of the same molecule?
**A.** Its value is “somewhat lower in vitro activity than the unmodified antibody fragment”.

**Q.** Which “in vivo circulatory half-life” value [3] does the source give for `CCCCS(=O)(=O)N[C@@H](Cc1ccc(OCCCCC2CCNCC2)cc1)C(=O)O` [Tirofiban] here?
**A.** Its value is “approximately two”.

**Q.** For “7E3 Fab′ (PEG5k)2: pseudo-antibody: 7E3 Fab′ fragment with two PEG5k chains”, which binding activity [2] is on record?
**A.** Its binding activity is “binding activity was clearly retained”.

**Q.** And the “in vitro activity (inhibition of platelet aggregation) compared with unmodified antibody fragment ReoPro” value [2]?
**A.** Its value is “somewhat lower in vitro activity than the unmodified antibody fragment”.

**Q.** For `O=C(C[C@H](CSc1ccccc1)C(=O)O)c1ccc(-c2ccc(Cl)cc2)cc1` [BAY12-9566], which “inhibitory activity against MMP 2” value [4] is on record?
**A.** The value was “nM inhibitory activity”.

**Q.** What about the “inhibitory activity against MMP 3” value [5] of the same molecule?
**A.** Its value is “nM inhibitory activity”.

**Q.** What about the “inhibitory activity against MMP 9” value [6] of the same molecule?
**A.** Its value is “nM inhibitory activity”.

**Q.** For `COc1nccc(-c2c(-c3ccc(F)cc3)ncn2C2CCNCC2)n1` [SB 242235], which “activity in the adjuvant arthritic rat” value [7] is on record?
**A.** Its value is “inhibits inflammation and has significant joint-protective effects”.

**Q.** With “7E3 Fab′ (PEG3.4k-DSPE)2: pseudo-antibody: 7E3 Fab′ fragment with two PEG3.4k chains each ending in diesteroylphosphatidyl-ethanolamine (DSPE)” as the molecule, how does the rate of clearance [1] read?
**A.** The rate of clearance was “slower rate of clearance”.

**Q.** And the “in vitro activity (inhibition of platelet aggregation) compared with unmodified 7E3 Fab′” value [2]?
**A.** Its value is “similar”.

B1: 7E3 Fab′ (PEG3.4.k-PAL)2: pseudo-antibody: 7E3 Fab′ fragment with two PEG3.4k chains each ending in palmatoyl (PAL) (conjugate, chains of the INN, looked up)
VH: EVQLQQSGTVLARPGASVKMSCEASGYTFTNYWMHWVKQRPGQGLEWIGAIYPGNSDTSYIQKFKGKAKLTAVTSTTSVYMELSSLTNEDSAVYYCTLYDGYYVFAYWGQGTLVTVSA
VL: EIVLTQSPVTLSVTPGDSVSLSCRASRDISNNLHWFQQTSHESPRLLIKYASQSMSGIPSRFSGSGSGTDFTLSINSVETEDFGMYFCQQTNSWPYTFGGGTKLEIK
modifications: Fab' two PEG3.4k-palmitoyl chains
**Q.** With B1 as the molecule, how does the “in vitro activity (inhibition of platelet aggregation) compared with unmodified 7E3 Fab′” value [2] read?
**A.** Its value is “similar”.
